According to patent US8232248B2, “Treatment of rheumatoid arthritis with mammal beta defensins” (Novozymes Adenium Biotech A/S, priority 2008, dated 2012):

Tests used:
[1] = tested on: IL-10 production from human peripheral blood mononuclear cells (PBMC); experiment: IL-10 production from PBMC stimulated with LPS, LTA or PGN, 24 h, Cytometric Bead Array; type: cell-based; conditions: Table 19
Protocol: (§1) Peripheral blood was drawn from healthy volunteers (with approval from the relevant ethical committee in Denmark). Heparinized blood was diluted 1/1 v/v with RPMI and were subjected to Ficoll density centrifugation within 2 h of drawing. Plasma was collected from the top from individual donors and was kept on ice until it was used at 2% in the culture medium (autologous culture medium). Isolated PBMC were resuspended in autologous culture medium and seeded in 96-well culture plates with 255.000 cells per well in a total of 200 μl. […] The concentrations used for stimulation were optimized on 3 different donors in initial experiments, for LPS two different concentrations were used to be sure to be on a cytokine level that is possible to modulate. In some experiments PBMC were treated with Dexamethason and Indomethacin alone and together with LPS or LTA as a control on downregulation of inflammatory cytokines. The supernatants were collected after incubation at 37° C. for 24 hours, and stored at −80° C. until cytokine measurement. Viability was measured by Alamar Blue (Biosource, DALL 1100) in all experiments and in some cases also by MTS (Promega) according to manufacturer's instruction and was in some experiments also judged by counting of the cells by a Nucleocounter.
(§2) Cytokine production in supernatants was measured by flow cytometry with a human inflammation cytometric bead array (CBA) according to manufacturer's instructions (BD) on a FACSarray flow cytometer. The following cytokines were measured: IL-8, IL-1β, IL-10, TNF, IL-12 p70, IL-6. In some experiments, cytokines were measured by ELISA kits from R&D systems (IL-10, TNF-α, IL-1β) according to the manufacturer' instruction.
(§3) All experiments were performed at least twice, with representative results shown. The data presented are expressed as mean plus/minus standard deviation (SD). […] Differences were considered significant for p<0.05.

PBMC = PBMC viability, Alamar Blue; type: cell-based, human; conditions: 40 μg/ml
Protocol: as §1

[2] = tested on: TNF production from human peripheral blood mononuclear cells (PBMC); experiment: TNF production from PBMC stimulated with LPS, LTA, PGN or Pam3CSK4, 24 h, Cytometric Bead Array; type: cell-based; conditions: Table 18; for TNF: Medium, non-treated 1
Protocol: as §1, §2, §3
Example 3 was carried out essentially as described in Example 2. […]

[3] = tested on: IL-1β production from human peripheral blood mononuclear cells (PBMC); experiment: IL-1β production from PBMC stimulated with LPS or LTA, 24 h, Cytometric Bead Array; type: cell-based; conditions: Table 20
Protocol: as §1, §2, §3

[4] = test compound 1 μg/ml, Medium, non-treated 0
[5] = test compound 10 μg/ml, Medium, non-treated 0
[6] = test compound 1 μg/ml, LPS 0.6 ng/ml
[7] = test compound 1 μg/ml, LPS 20 ng/ml
[8] = test compound 10 μg/ml, LPS 0.6 ng/ml
[9] = test compound 10 μg/ml, LPS 20 ng/ml

## hBD4 variant: consists of amino acids 3-39 of hBD4, SEQ ID NO:5 (ELDRICGYGTARCRKKCRSQEYRIGRCPNTYACCLRK; hBD-4 variant consisting of amino acids 3-39 of SEQ ID NO4)
[1]; PBMC with LPS
  Secretion of IL-10: significantly and dose-dependently enhanced
[1]; test compound 1 μg/ml, LPS 0.6 ng/ml, non-treated 66
  IL-10: 90 pg/mL
[1]; [4]
  IL-10: 0 pg/mL
[1]; test compound 10 μg/ml, LPS 0.6 ng/ml, non-treated 66
  IL-10: 92 pg/mL
[1]; [5]
  IL-10: 0 pg/mL
PBMC
  Toxicity to the cells: toxic to the cells
[2]; [6]
  TNF % of control: 64%
[2]; [7]
  TNF % of control: 36%
[2]; test compound 1 μg/ml
  TNF: 0 pg/mL
[2]; [8]
  TNF % of control: 29%
[2]; [9]
  TNF % of control: 6%
[2]; test compound 10 μg/ml
  TNF: 0 pg/mL
[3]; [6]
  IL-1β % of control: 39%
[3]; test compound 1 μg/ml, LPS 0.6 ng/ml, non-treated 741
  IL-1β: 286 pg/mL
[3]; [7]
  IL-1β % of control: 40%
[3]; test compound 1 μg/ml, LPS 20 ng/ml, non-treated 2544
  IL-1β: 1004 pg/mL
[3]; [4]
  IL-1β: 0 pg/mL
[3]; [8]
  IL-1β % of control: 22%
[3]; test compound 10 μg/ml, LPS 0.6 ng/ml, non-treated 741
  IL-1β: 163 pg/mL
[3]; [9]
  IL-1β % of control: 18%
[3]; test compound 10 μg/ml, LPS 20 ng/ml, non-treated 2544
  IL-1β: 463 pg/mL
[3]; [5]
  IL-1β: 0 pg/mL
